Test results reported in article PMC6658998, “Pharmacological characterization of the seven human NOX isoforms and their inhibitors” (Redox Biology, 2019).
Read-outs that look alike come from different tables or passages of the source.

Experiments:
[1] = biological target: T1, NOX3 (Homo sapiens, UniProt Q9HBY0); assay: WST-1 O2•- detection in tetracycline-induced NOX3 HEK293 T-REx cells; type: cell-based
T1 sequence (Q9HBY0 1-568): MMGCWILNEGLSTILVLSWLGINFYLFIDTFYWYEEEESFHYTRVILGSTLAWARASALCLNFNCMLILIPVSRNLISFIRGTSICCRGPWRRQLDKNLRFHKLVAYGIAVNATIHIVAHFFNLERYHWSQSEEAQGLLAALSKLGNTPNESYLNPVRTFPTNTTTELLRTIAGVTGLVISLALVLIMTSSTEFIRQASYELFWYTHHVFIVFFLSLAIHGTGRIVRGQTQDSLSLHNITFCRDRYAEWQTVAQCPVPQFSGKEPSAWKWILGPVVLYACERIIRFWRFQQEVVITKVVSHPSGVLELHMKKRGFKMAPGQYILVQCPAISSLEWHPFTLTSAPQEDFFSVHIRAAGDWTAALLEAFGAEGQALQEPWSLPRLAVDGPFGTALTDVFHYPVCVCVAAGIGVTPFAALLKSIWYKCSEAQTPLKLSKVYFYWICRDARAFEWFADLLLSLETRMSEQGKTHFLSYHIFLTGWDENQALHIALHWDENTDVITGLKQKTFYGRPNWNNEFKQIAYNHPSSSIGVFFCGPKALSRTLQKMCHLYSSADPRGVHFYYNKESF
T1 sequence (P13498 1-195 partner): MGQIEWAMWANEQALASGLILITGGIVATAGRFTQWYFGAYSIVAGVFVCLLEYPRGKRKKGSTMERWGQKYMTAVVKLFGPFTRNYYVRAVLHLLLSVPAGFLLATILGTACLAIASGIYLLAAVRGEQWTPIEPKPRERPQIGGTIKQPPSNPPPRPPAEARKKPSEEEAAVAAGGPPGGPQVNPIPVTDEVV
T1 sequence (Q8NFA2 1-376 partner): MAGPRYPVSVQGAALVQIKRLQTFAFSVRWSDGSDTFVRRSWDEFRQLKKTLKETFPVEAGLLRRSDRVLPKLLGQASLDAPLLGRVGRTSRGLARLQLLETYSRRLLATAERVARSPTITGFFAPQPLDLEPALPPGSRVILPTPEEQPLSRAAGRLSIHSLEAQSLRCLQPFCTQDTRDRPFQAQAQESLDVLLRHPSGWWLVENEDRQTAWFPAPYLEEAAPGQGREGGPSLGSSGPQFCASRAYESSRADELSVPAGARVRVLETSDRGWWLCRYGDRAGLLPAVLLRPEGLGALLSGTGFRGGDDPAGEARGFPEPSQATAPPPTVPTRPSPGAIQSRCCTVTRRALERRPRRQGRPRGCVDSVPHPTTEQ
From the text: (§1) Compounds were dispensed prior addition of cells.

[2] = biological target: T1, NOX3; assay: Amplex Red/HRP H2O2 detection in tetracycline-induced NOX3 HEK293 T-REx cells; type: cell-based
From the text: as §1

[3] = biological target: T2, NOX2 (Homo sapiens, UniProt P04839); assay: WST-1 O2•- detection in differentiated PLB-985 cells (NOX2)
T2 sequence (P04839 2-570 limits assumed): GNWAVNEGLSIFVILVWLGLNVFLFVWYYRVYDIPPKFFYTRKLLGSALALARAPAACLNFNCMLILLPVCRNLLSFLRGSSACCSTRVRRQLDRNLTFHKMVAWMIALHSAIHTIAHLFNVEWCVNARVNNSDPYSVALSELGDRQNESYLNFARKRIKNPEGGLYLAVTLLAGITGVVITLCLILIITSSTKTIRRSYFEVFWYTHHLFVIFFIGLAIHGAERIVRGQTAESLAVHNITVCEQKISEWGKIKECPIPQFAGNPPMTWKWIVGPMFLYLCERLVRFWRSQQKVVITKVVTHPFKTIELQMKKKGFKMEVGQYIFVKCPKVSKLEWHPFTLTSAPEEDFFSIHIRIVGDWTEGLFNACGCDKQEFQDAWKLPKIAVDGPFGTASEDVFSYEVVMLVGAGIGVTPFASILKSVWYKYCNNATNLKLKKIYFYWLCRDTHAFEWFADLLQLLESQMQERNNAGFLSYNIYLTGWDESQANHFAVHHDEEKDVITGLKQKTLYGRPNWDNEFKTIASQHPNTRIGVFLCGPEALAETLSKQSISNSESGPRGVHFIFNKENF
T2 sequence (P13498 1-195 partner): T1 sequence (P13498 1-195 partner)

[4] = biological target: T2, NOX2; assay: NOX2-dependent oxygen consumption in PMA-activated human neutrophils (Seahorse); type: cell-based; details: 100 nM PMA
Experimental: Human polymorphonuclear leukocytes (PMN) were isolated from fresh whole blood collected from healthy volunteers as described. Briefly, 32 mL blood was collected in 8 mL sodium citrate (3.8%) and blood cells sedimented for 40 min with dextran T500 (4% in NaCl 0.9%). The upper yellowish fraction containing leukocytes was collected and centrifugated at 380×g for 10 min. Pellets were resuspended in PBS and separated using Ficoll Plaque™ Plus (450 ×g , with no brake) for 15 min, RT. Red blood cells were lysed by addition of 5 mL H2O for 30 s followed by addition of 5 mL NaCl 1.8%. Remaining PMN were collected by centrifugation for 10 min at 250 ×g , washed and resuspended in HBSS, counted and kept on ice for a maximum of 30 min until they were used for oxygen consumption measurement.
Oxygen consumption was determined using human neutrophils and NOX4 T-Rex HEK293 cells using the Seahorse XF24 Extracellular Flux Analyzer. Neutrophils were plated in 24-well microplates (250,000 cells/well in 200 μL HBSS) and incubated at room temperature for 15 min for attachment. The medium was changed to DMEM without sodium bicarbonate containing 10 mM Hepes prewarmed to 37 °C, and the cells were incubated for 30 min at 37 °C in a non-CO2 incubator. Basal oxygen consumption was recorded for 8 min followed by addition of compounds and 8 min preincubation. PMA (100 nM) was added where indicated and the oxygen consumption rate was determined for two cycles of 8 min each. The signal obtained from neutrophils without PMA treatment was subtracted as a blank, while the signal obtained from PMA + DMSO-treated neutrophils was considered as 100%.

[5] = biological target: T3, DUOX2 (Homo sapiens, UniProt Q9NRD8); assay: Amplex Red/HRP H2O2 detection in DUOX2-expressing HEK293 cells; type: cell-based; details: PMA 0.1 μM and ionomycin 1 μM, read-out: IC50 DUOX2 (HEK) AR
T3 construct: expressed in transfected cells; host or cells: HEK293, selected with G418 and zeocin
T3 sequence (Q9NRD8 26-1548): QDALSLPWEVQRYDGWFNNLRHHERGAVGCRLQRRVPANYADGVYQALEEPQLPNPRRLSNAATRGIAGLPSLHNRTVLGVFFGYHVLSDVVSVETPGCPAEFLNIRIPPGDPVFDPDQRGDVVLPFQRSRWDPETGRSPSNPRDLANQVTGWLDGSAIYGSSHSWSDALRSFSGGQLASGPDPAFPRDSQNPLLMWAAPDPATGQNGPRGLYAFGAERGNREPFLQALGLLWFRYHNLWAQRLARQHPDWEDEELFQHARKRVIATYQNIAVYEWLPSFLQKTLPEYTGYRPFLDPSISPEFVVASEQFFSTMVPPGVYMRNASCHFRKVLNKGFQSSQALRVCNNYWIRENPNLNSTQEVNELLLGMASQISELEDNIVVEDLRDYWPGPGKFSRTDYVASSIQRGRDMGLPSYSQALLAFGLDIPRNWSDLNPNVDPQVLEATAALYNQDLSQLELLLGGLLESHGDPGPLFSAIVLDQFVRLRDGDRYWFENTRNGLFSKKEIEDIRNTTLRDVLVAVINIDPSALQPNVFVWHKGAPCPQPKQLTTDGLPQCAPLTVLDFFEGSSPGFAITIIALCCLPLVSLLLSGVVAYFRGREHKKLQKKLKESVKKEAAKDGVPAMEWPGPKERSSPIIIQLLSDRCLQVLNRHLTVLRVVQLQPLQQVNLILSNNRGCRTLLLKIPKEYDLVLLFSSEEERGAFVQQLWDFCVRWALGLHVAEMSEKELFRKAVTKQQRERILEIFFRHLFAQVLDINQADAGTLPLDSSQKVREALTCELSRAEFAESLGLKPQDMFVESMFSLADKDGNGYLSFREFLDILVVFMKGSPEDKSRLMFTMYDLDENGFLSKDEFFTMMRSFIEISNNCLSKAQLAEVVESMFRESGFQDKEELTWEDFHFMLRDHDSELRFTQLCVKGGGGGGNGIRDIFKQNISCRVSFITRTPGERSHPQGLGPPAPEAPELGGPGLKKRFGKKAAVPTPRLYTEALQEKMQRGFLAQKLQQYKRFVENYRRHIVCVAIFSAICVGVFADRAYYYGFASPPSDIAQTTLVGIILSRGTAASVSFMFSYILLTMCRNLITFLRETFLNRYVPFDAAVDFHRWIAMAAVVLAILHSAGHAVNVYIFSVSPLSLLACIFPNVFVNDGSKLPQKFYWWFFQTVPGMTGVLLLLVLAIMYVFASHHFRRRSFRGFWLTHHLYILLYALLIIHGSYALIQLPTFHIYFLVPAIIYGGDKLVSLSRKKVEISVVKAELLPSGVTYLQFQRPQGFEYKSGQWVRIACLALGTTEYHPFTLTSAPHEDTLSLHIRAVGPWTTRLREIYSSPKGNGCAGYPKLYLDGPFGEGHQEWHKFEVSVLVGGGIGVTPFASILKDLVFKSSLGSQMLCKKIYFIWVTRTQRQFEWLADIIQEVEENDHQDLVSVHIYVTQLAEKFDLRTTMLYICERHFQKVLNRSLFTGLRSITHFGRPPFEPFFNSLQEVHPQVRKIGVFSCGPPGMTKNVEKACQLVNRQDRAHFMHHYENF
T3 sequence (Q1HG44 whole entry partner): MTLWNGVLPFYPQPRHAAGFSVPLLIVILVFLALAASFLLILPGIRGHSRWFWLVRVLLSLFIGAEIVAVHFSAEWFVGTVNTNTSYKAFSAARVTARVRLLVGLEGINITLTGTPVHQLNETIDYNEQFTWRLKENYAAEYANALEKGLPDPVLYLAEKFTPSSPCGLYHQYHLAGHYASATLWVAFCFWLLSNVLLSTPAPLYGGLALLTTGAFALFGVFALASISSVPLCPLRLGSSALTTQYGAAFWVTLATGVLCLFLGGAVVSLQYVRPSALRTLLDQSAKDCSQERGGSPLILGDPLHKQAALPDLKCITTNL

[6] = biological target: T4, DUOX1 (Homo sapiens, UniProt Q9NRD9); assay: Amplex Red/HRP H2O2 detection in DUOX1-expressing HEK293 cells; type: cell-based
T4 construct: expressed in transfected cells; host or cells: HEK293, selected with G418 and zeocin
T4 sequence (Q9NRD9 22-1551): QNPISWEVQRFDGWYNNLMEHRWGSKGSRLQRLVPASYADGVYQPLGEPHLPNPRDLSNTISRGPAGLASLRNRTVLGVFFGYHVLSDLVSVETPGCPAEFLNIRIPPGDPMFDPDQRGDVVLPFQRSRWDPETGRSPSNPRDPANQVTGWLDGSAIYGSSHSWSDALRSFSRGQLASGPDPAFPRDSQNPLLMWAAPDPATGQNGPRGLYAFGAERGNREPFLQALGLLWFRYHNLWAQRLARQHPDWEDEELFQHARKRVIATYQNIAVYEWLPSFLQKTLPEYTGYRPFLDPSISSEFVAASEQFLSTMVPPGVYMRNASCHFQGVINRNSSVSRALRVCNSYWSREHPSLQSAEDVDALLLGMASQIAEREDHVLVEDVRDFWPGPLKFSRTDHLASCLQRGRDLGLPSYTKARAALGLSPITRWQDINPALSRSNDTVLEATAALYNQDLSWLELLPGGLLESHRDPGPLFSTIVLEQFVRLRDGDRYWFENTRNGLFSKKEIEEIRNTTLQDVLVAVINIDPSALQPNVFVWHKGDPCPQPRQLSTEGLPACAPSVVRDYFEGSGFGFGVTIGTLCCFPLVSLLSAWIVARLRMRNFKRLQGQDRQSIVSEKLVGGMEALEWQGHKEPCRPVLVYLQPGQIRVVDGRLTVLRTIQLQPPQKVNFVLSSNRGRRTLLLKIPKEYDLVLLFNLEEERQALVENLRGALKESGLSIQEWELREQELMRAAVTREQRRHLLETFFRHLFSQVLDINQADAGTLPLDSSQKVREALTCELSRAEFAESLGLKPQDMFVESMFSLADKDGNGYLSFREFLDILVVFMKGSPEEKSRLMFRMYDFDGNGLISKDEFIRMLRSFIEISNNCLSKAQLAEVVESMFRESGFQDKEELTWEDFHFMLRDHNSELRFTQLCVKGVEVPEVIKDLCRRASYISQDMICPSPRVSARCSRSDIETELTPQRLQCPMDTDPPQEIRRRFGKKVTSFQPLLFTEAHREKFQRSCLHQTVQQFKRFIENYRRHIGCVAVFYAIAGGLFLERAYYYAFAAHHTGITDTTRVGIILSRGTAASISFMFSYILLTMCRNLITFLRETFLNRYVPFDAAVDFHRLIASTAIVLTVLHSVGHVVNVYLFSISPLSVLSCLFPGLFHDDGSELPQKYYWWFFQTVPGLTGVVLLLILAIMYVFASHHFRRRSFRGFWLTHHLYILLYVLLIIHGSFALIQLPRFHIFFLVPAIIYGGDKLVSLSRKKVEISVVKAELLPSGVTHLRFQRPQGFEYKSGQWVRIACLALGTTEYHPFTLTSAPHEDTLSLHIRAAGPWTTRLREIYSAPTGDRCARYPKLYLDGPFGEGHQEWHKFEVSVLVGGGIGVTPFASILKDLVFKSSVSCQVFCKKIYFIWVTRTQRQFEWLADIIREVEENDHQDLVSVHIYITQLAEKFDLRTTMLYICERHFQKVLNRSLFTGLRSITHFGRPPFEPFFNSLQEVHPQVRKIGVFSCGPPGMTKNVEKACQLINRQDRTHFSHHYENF
T4 sequence (Q1HG43 whole entry partner): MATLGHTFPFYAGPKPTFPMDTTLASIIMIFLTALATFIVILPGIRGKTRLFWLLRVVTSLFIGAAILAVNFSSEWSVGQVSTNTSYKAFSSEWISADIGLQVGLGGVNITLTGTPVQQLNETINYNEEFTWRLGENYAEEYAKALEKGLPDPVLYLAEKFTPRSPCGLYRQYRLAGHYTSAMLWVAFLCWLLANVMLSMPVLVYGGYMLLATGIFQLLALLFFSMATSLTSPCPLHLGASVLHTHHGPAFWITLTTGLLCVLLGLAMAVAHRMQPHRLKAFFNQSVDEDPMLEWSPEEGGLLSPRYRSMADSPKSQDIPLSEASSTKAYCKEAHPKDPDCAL

[7] = WST-1, tetracycline 1 μg/mL 24 h, read-out: IC50 NOX3 (T-REx) WST-1
[8] = Amplex red/HRP, tetracycline 1 μg/mL 24 h, read-out: IC50 NOX3 (T-REx) AR
[9] = Amplex red/HRP, PMA 0.1 μM and ionomycin 1 μM, read-out: IC50 DUOX1 (HEK) AR

Row | Structure (SMILES) | IC50 [1, 7] [µM] | IC50 [2, 8] [µM] | IC50 [3] [µM] | Inhibition of NOX2-dependent oxygen consumption ([4]; compound 300 μM) | IC50 [5] [µM] | IC50 [6, 9] [µM] | IC50 [1] [µM] | IC50 [2] [µM] | Inhibition of NOX2-dependent oxygen consumption ([4]; concentration not given) | IC50 [6] [µM] | Inhibition of NOX2-dependent oxygen consumption ([4]; compound 50 μM)
1 | COc1cc(C(C)=O)ccc1O [Apocynin, apocynin] | > 50 | > 50 | > 50 | only weakly | > 50 | > 50 | – | – | – | – | –
2 | c1ccc2c(c1)[I+]c1ccccc1-2 [DPI, diphenylene iodonium chloride] | – | – | – | – | – | – | 0.2 | 2.2 | inhibited | 1.4 | –
3 | COc1cc(C(C)=O)cc(-c2cc(C(C)=O)cc(OC)c2O)c1O [Diapocynin, diapocynin] | > 50 | > 50 | > 50 | – | 21.7 | 13.6 | – | – | – | – | only weakly
4 | O=c1c2ccccc2[se]n1-c1ccccc1 [Ebselen, ebselen] | 35 | 2.9 | – | – | 4.2 | 4.2 | – | – | inhibited | – | –
5 | Cc1c2c(=O)n(-c3ccccc3Cl)[nH]c2cc(=O)n1Cc1ccccn1 [GKT136901] | > 50 | 5.7 | > 50 | – | 9.8 | 5.9 | – | – | – | – | not
6 | c1ccc(Cn2nnc3c(Sc4nc5ccccc5o4)ncnc32)cc1 [VAS2870, 3-benzyl-7-(2-benzoxazolyl)thio-1,2,3-triazolo[4,5-d]pyrimidine] | > 50 | > 50 | – | – | – | – | – | – | inhibited | – | –
